The text below walks through data of US20220235065A1 (Epizyme, Inc., priority 2016, published 2022).

For assay [1], the system named is H3K9me2 in MDA-MB-231 cells. Briefly: MDA-MB-231 H3K9me2 in-cell western assay. In kind it is cell-based. The settings on record: Homo sapiens, read-out: EHMT2 ICW (IC50 μM). An excerpt: MDA-MB-231 cell line was purchased from ATCC (Manassas, Va., USA). RPMI/Glutamax medium, Penicillin-Streptomycin, Heat Inactivated Fetal Bovine Serum, and D-PBS were purchased from Life Technologies (Grand Island, N.Y., USA). Odyssey blocking buffer, 800CW goat anti-mouse IgG (H+L) antibody, and Licor Odyssey Infrared Scanner were purchased from Licor Biosciences, Lincoln, Nebr., USA. H3K9me2 mouse monoclonal antibody (Cat #1220) was purchased from Abcam (Cambridge, Mass., USA). 16% Paraformaldehyde was purchased from Electron Microscopy Sciences, Hatfield, Pa., USA). MDA-MB-231 cells were maintained in complete growth medium (RPMI supplemented with 10% v/v heat inactivated fetal bovine serum) and cultured at 37° C. under 5% CO2. UNC0638 was purchased from Sigma-Aldrich (St. Louis, Mo., USA).
General Procedure for MDA-MB-231 HEK9me2 In-Cell Western Assay.
Compound (100 nL) was added directly to 384-well cell plate. MDA-MB-231 cells (ATCC) were seeded in assay medium (RPMI/Glutamax supplemented with 10% v/v heat inactivated fetal bovine serum and 1% Penicillin/Streptomycin, Life Technologies) at a concentration of 3,000 cells per well to a Poly-D-Lysine coated 384-well cell culture plate with 50 μL per well. Plates were incubated at 37° C., 5% CO2 for 48 hours (BD Biosciences 356697). Plates were incubated at room temperature for 30 minutes and then incubated at 37° C., 5% CO2 for additional 48 hours. After the incubation, 50 μL per well of 8% paraformaldehyde (Electron Microscopy Sciences) in PBS was added to the plates and incubated at room temperature for 20 minutes. Plates were transferred to a Biotek 406 plate washer and washed 2 times with 100 μL per well of wash buffer (1×PBS containing 0.3% Triton X-100 (v/v)). Next, 60 μL per well of Odyssey blocking buffer (Licor Biosciences) was added to each plate and incubated for 1 hour at room temperature. Blocking buffer was removed and 20 μL of monoclonal primary antibody α-H3K9me2 (Abcam) diluted 1:800 in Odyssey buffer with 0.1% Tween 20 (v/v) were added and plates were incubated overnight (16 hours) at 4° C. Plates were washed 5 times with 100 μL per well of wash buffer. Next 20 μL per well of secondary antibody was added (1:500 800CW […] anti-mouse IgG (H+L) antibody (Licor Biosciences), 1:1000 DRAQ5 (Cell Signaling Technology) in Odyssey buffer with 0.1% Tween 20 (v/v)) and incubated for 1 hour at room temperature. The plates were washed 5 times with 100 μL per well wash buffer then 2 times with 100 μL per well of water. Plates were allowed to dry at room temperature then imaged on a Licor Odyssey Infrared Scanner (Licor Biosciences) which measured integrated intensity at 700 nm and 800 nm wavelengths. Both 700 and 800 channels were scanned.
% Inhibition Calculation.
First, the ratio for each well was determined by
Each plate included fourteen control wells of DMSO only treatment (Minimum Inhibition) as well as fourteen control wells (background wells) for maximum inhibition treated with control compound UNC0638 (Background wells).
The average of the ratio values for each well was calculated and used to determine the percent inhibition for each test well in the plate. Control compound was serially diluted three-fold in DMSO for a total of 10 test concentrations beginning at 1 μM. Percent inhibition was calculated as: […]
IC50 curves were generated using triplicate wells per concentration of compound. The IC50 is the concentration of compound at which measured methylation is inhibited by 50% as interpolated from the dose response curves. IC50 values were calculated using a non-linear regression (variable slope-four parameter fit model) with by the following formula
where Top is fixed at 100% and Bottom is fixed to 0%, [I]=concentration of inhibitor, IC50=half maximal inhibitory concentration and n=Hill Slope.

The next assay addresses T1, EHMT1 (Homo sapiens, UniProt Q9H9B1).
T1 sequence (Q9H9B1 1-1298): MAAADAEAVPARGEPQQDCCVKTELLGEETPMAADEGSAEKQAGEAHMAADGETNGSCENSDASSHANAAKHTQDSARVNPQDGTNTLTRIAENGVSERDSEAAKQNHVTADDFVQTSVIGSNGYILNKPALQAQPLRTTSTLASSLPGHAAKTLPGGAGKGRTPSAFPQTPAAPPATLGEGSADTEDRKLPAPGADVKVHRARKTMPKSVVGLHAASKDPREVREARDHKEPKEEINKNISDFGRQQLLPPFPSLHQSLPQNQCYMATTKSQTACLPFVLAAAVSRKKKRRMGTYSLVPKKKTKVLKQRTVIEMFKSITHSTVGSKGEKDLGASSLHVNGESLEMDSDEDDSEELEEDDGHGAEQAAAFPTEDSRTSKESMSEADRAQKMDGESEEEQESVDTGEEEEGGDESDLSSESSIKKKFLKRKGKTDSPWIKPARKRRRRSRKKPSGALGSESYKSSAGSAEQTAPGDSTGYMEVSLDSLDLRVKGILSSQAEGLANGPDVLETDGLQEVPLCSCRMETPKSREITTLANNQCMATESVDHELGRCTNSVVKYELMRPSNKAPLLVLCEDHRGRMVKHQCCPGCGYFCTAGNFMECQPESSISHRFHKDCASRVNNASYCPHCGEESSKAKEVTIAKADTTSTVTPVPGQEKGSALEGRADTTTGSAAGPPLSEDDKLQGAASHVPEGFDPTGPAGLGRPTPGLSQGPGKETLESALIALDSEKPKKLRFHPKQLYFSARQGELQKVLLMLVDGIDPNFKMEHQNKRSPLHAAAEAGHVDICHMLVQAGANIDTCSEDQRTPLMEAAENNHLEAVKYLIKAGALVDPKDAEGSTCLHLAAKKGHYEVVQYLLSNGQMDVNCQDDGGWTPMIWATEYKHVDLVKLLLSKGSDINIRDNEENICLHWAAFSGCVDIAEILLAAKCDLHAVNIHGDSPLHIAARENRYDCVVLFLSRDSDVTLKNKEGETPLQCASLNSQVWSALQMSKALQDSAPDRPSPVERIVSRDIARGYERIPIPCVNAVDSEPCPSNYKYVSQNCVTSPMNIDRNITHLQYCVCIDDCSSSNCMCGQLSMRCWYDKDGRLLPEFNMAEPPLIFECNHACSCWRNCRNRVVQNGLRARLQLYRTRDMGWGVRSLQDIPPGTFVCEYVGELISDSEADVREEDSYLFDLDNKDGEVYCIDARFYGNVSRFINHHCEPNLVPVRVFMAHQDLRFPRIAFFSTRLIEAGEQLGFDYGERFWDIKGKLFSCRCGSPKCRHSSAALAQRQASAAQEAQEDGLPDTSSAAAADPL
Briefly: EHMT1 PEP (EHMT1 peptide enzyme assay). It counts as biochemical. The settings on record: peptide substrate enzyme assay.

One may read the IC50 as the concentration that gives 50% inhibition. `CNc1cc(C)nc(Nc2ccc(OC)c(-c3cc4c(cn3)CC(=O)N4)c2)n1` [Compound 219]: the IC50 in assay [1] is > 10 µM; at EHMT1, 0.1 to 1 µM.

Regarding `CNc1cc(C)nc(Nc2ccc(OC)c(-c3cc4[nH]ccc4cn3)c2OC)n1` [Compound 220], the results for the IC50 (in assay [1]; on EHMT1) were > 10 µM and 1 to 10 µM, respectively.

Consider `CNc1cc(C)nc(Nc2ccc(OC)c(-c3cc4[nH]ccc4cn3)c2F)n1` [Compound 221], for which the IC50 in assay [1] is 0.1 to 1 µM; against EHMT1 it was < 0.1 µM.

With `CNCc1cnn(-c2c(OC)ccc(Nc3nc(C)cc(NC)n3)c2OC)c1` [Compound 222], the IC50 in assay [1] is 0.1 to 1 µM; at EHMT1 it was < 0.1 µM.

As to `CNc1cc(C)nc(Nc2ccc(OC)c(-c3cnc4cc[nH]c4c3)c2)n1` [Compound 223], the IC50 in assay [1] is 0.1 to 1 µM; on EHMT1, < 0.1 µM.

As to `CNc1cc(-c2cc(Nc3nc(C)cc(NC)n3)ccc2OC)ncn1` [Compound 225], the IC50 in assay [1] is 1 to 10 µM; at EHMT1, < 0.1 µM.

With `CNc1cc(C)nc(Nc2ccc(OC)c(-c3cc4[nH]ccc4nc3C)c2)n1` [Compound 228], the results for the IC50 (in assay [1]; at EHMT1) were 0.1 to 1 µM and < 0.1 µM, respectively.

Regarding `CNc1cc(C)nc(Nc2ccc(OC)c(-c3cc4[nH]cc(F)c4cn3)c2)n1` [Compound 229], the IC50 in assay [1] is 0.1 to 1 µM; against EHMT1, < 0.1 µM.

In the case of `CNc1cc(-c2cc(Nc3nc(C)cc(NC)n3)ccc2OC)nc(C)n1` [Compound 230], the IC50 in assay [1] was 1 to 10 µM; at EHMT1, < 0.1 µM.

With `COc1cc(NC2CCNCC2)ccc1-c1cc2[nH]ccc2cn1` [Compound 231], the half-inhibitory concentration (IC50) was > 10 µM in assay [1] and 1 to 10 µM at EHMT1.

As for `CNc1cc(C)nc(Nc2ccc(OC)c(-c3cc(C4CC4)ncn3)c2)n1` [Compound 232], the concentration for half-maximal inhibition (IC50) (in assay [1]; on EHMT1) was 1 to 10 µM throughout.

For the compound `CNc1cc(C)nc(Nc2ccc(OC)c(-c3cc(C4CC4)cnn3)c2)n1` [Compound 233], the IC50 in assay [1] was 1 to 10 µM; against EHMT1, 0.1 to 1 µM.

Take `CNc1cc(C)nc(Nc2ccc(OC)c(-c3cn4ccnc4cn3)c2)n1` [Compound 234]: the IC50 lay in the range of 1 to 10 µM in assay [1] and 0.1 to 1 µM at EHMT1.

For the compound `CNc1cc(C)nc(Nc2ccc(OC)c(-c3cc4cnoc4cn3)c2)n1` [Compound 235], the IC50 (in assay [1]; at EHMT1) was > 10 µM each time.

As for `COc1cc(NC2CCNCC2)ccc1-c1cc(C2CC2)cnn1` [Compound 236], the IC50 (in assay [1]; against EHMT1) was > 10 µM each time.

Take `CNc1cc(C)nc(Nc2ccc(OC)c(-c3cc4[nH]ccc4c(C)n3)c2)n1` [Compound 237]: the IC50 in assay [1] is 0.1 to 1 µM; at EHMT1 it was < 0.1 µM.

Take `CNC1=Nc2cc(-c3[nH]c4cnccc4c3C)c(OC)cc2C12CCC2` [Compound 238, 5′-methoxy-N-methyl-6′-(3-methyl-1H-pyrrolo[2,3-c]pyridin-2-yl)spiro[cyclobutane-1,3′-indol]-2′-amine]: the IC50 (in assay [1]; against EHMT1) was < 0.1 µM each time.

`CNc1cc(C)nc(Nc2ccc(C)c(C(=O)Nc3cccnc3)c2)n1` [Compound 239]: the IC50 (in assay [1]; against EHMT1) was > 10 µM each time.

For the compound `CNc1cc(C)nc(Nc2ccc(Cl)c(C(=O)Nc3cccnc3)c2)n1` [Compound 240], the IC50 was > 10 µM in assay [1] and 1 to 10 µM against EHMT1.

`CNc1cc(C)nc(Nc2ccc(C)c(-c3cc4ccncc4[nH]3)c2)n1` [Compound 241]: the IC50 in assay [1] is 0.1 to 1 µM; against EHMT1, < 0.1 µM.

As to `CNc1cc(C)nc(Nc2cccc(C(=O)Nc3cccnc3)c2)n1` [Compound 242], the IC50 (in assay [1]; on EHMT1) was > 10 µM in each case.
